In PubChem BioAssay AID1918945 (Molecular Pharmacology Branch, DTP, NCI, 2023):

System: 883617-216-R-J1-PDC complex spheroid viability
Test: Anticancer human tumor 883617-216-R-J1-PDC patient-derived bladder carcinoma cell line growth inhibition
Conditions: for IC50: curve of first compound; for viability, T/C: stronger effect = lower value
Description: Multicellular complex tumor spheroid response to LSD1 Inhibitor Iadademstat in combination with a variety of drugs and investigational agents in selected tumor cell lines
The current study was undertaken to assess response to LSD1 inhibitors in combination with standard-of-care drugs and investigational agents in solid tumor complex spheroid models as well as in the K-562 leukemia. Complex spheroids include a stromal component modeled by human endothelial cells (HUVEC) and fibroblasts modeled by human mesenchymal stem cells (MSCs). The concentration ranges selected for each drug and investigational agent were based upon clinically achievable concentrations if the clinical Cmax of the agent was known.
Compounds. The drugs and investigational agents used in this study are listed on Table 1. All of the agents used, including staurosporine (NSC755774) and gemcitabine (NSC613327), were obtained from the Developmental Therapeutics Program, NCI. FDA-approved anticancer drugs are available from the NCI at http://dtp.nci.nih.gov/branches/dscb/oncology_drugset_explanation.html. Drugs and investigational agents were >95% pure by proton nuclear magnetic resonance (NMR) and liquid chromatography/mass spectrometry (LC/MS). Stock solutions were prepared at 400x in DMSO, stored at -70 degrees C, and diluted in fresh medium prior to their use. The final concentration of DMSO in cell culture wells never exceeded 0.25% (v/v). The FDA-approved anticancer drug set is available from the Developmental Therapeutics Program at https://dtp.cancer.gov/organization/dscb/obtaining/available_plates.htm. All drugs and investigational agents were tested over a range starting from a high concentration at or near the clinical Cmax and decreasing in half-log increments. If the clinical Cmax for an agent had not been determined, the highest concentration tested was 10 microM.
Cell Lines. The patient-derived cancer cell (PDC) lines: 292921-168-R-J2-PDC, K24384-001-R-PDC, and 521955-158-R2-J5-PDC pancreatic carcinomas, 556581-035-R-J1 ovarian carcinoma, 324938-238-R-J1-PDC, 855422-203-R-J1-PDC and 883617-216-R-J1-PDC urothelial bladder carcinomas, 743489-274-T-PDC renal cell carcinoma, 138582-R-J1 Merkel cell tumor, K60290-347-R-J1 and K57222-313-R-J1-PDC glioblastomas, 653999-131-R-J2-PDC, LG0703-F948-PDC, and 349418-098-R-PDC non-small cell lung carcinomas, 885512-296-R-J2-PDC, 171881-019-R-J1-PDC breast carcinomas and 186277-243-T-J2-PDC and 233499-124-R-J2-PDC colon carcinomas were obtained from the NCI Patient-Derived Models Repository (PDMR, https://pdmr.cancer.gov). The established cell lines NCI/ADR-RES (RRID:CVCL_14520 and OVCAR-5 (RRID:CVCL_1628) ovarian carcinomas, 786-O (RRID:CVCL_1051) and A498 (RRID:CVCL_A498) renal cell carcinoma, NCI-H211 (ATCC, cat. CRL-5824; RRID:CVCL_1529), NCI-H196 (ATCC, cat. CRL-5823, RRID:CVCL_1509), SW 1271 (ATCC, cat. CRL-2177, RRID:CVCL_1716) and NCI-H1876 (ATCC, cat. CRL-5902, RRID:CVCL_1503) small cell lung carcinomas, MDA-MB-231 (RRID:CVCL_0062) and MDA-MB-468 (RRID:CVCL_0419)breast carcinomas (10-12). Pooled donor human umbilical vein endothelial cells (HUVEC, Lonza, cat. CC-2519) and human mesenchymal stem cells (hMSC, Lonza, cat. PT-2501) were purchased from Lonza (Walkersville, MD).
Cell Culture. All cells were maintained in an incubator at 37 degrees C and 5% CO2 with 95% humidity. The PDC lines were cultured according to standard operating procedures established by the NCI PDMR (https://pdmr.cancer.gov). Briefly all PDCs were thawed and cultured in Matrigel-coated flasks prepared with a working solution of 1X Ham's F-12 nutrient mix, without supplementation (Invitrogen, Waltham, MA, cat. 11765054), 100 U/mL penicillin-streptomycin (Invitrogen, cat. 15140122), and 2.5% Matrigel (Corning Inc., Corning, NY, cat. 354248) for the first three passages. […]

[1] = second compound 0.1 µM, first compound 0.00949 µM
[2] = second compound 0.1 µM, first compound 0.03 µM
[3] = second compound 0.1 µM, first compound 0.0949 µM
[4] = second compound 0.1 µM, first compound 0.3 µM
[5] = second compound 0.316 µM, first compound 0.00949 µM
[6] = second compound 0.316 µM, first compound 0.03 µM
[7] = second compound 0.316 µM, first compound 0.0949 µM
[8] = second compound 0.316 µM, first compound 0.3 µM
[9] = second compound 1 µM, first compound 0.00949 µM
[10] = second compound 1 µM, first compound 0.03 µM
[11] = second compound 1 µM, first compound 0.0949 µM
[12] = second compound 1 µM, first compound 0.3 µM
[13] = second compound 3.16 µM, first compound 0.00949 µM
[14] = second compound 3.16 µM, first compound 0.03 µM
[15] = second compound 3.16 µM, first compound 0.0949 µM
[16] = second compound 3.16 µM, first compound 0.3 µM
[17] = second compound 10 µM, first compound 0.00949 µM
[18] = second compound 10 µM, first compound 0.03 µM
[19] = second compound 10 µM, first compound 0.0949 µM
[20] = second compound 10 µM, first compound 0.3 µM
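Also: exposure lasted seven days after three days of spheroid growth.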
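For viability, T/C in this document: 100% = DMSO vehicle control luminescence.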

SMILES | IC50 (second compound 0.1 µM) | IC50 (second compound 0.316 µM) | IC50 (second compound 1 µM) | IC50 (second compound 3.16 µM) | IC50 (second compound 10 µM) | viability, T/C [1] | viability, T/C [2] | viability, T/C [3] | viability, T/C [4] | viability, T/C [5] | viability, T/C [6] | viability, T/C [7] | viability, T/C [8] | viability, T/C [9] | viability, T/C [10] | viability, T/C [11] | viability, T/C [12] | viability, T/C [13] | viability, T/C [14] | viability, T/C [15] | other results
O=C(C=Cc1cccc(S(=O)(=O)Nc2ccccc2)c1)NO + NC1CCC(NC2CC2c2ccccc2)CC1 | 142 nM | 131 nM | 139 nM | 139 nM | 124 nM | 102% | 92.8% | 55.3% | 31.2% | 108% | 98.6% | 50% | 31.7% | 95.7% | 84.3% | 57.4% | 30.8% | 101% | 84.2% | 55.7% | viability, T/C (second compound 0.1 µM, first compound 0.949 µM): 20.7%; viability, T/C (second compound 0.1 µM, first compound 3 µM): 2.88%; viability, T/C (second compound 0.316 µM, first compound 0.949 µM): 20.9%; viability, T/C (second compound 0.316 µM, first compound 3 µM): 2.02%; viability, T/C (second compound 1 µM, first compound 0.949 µM): 18.9%; viability, T/C (second compound 1 µM, first compound 3 µM): 2.72%; viability, T/C [16]: 34.2%; viability, T/C (second compound 3.16 µM, first compound 0.949 µM): 17.8%; viability, T/C (second compound 3.16 µM, first compound 3 µM): 2.63%; viability, T/C [17]: 99.5%; viability, T/C [18]: 76.4%; viability, T/C [19]: 55.3%; viability, T/C [20]: 32.6%; viability, T/C (second compound 10 µM, first compound 0.949 µM): 19.6%; viability, T/C (second compound 10 µM, first compound 3 µM): 1.64%
Nc1ccn(C2OC(CO)C(O)C2(F)F)c(=O)n1 (stereo not given) + NC1CC1c1ccc(-c2cccc(O)c2)cc1 | < 0.949 nM | < 0.949 nM | < 0.949 nM | < 0.949 nM | < 0.949 nM | 21.9% | 22.2% | 23.6% | 24.9% | 22.8% | 21% | 23.2% | 23% | 23.4% | 21.5% | 21.1% | 24.4% | 20.6% | 25.6% | 21% | viability, T/C (second compound 0.1 µM, first compound 0.000949 µM): 19.4%; viability, T/C (second compound 0.1 µM, first compound 0.003 µM): 23.2%; viability, T/C (second compound 0.316 µM, first compound 0.000949 µM): 19.8%; viability, T/C (second compound 0.316 µM, first compound 0.003 µM): 20.6%; viability, T/C (second compound 1 µM, first compound 0.000949 µM): 22%; viability, T/C (second compound 1 µM, first compound 0.003 µM): 20.8%; viability, T/C (second compound 3.16 µM, first compound 0.000949 µM): 21.9%; viability, T/C (second compound 3.16 µM, first compound 0.003 µM): 20.8%; viability, T/C [16]: 20.9%; viability, T/C (second compound 10 µM, first compound 0.000949 µM): 29.5%; viability, T/C (second compound 10 µM, first compound 0.003 µM): 27.2%; viability, T/C [17]: 24.9%; viability, T/C [18]: 24.3%; viability, T/C [19]: 23.3%; viability, T/C [20]: 21.6%
